Source: PubChem BioAssay AID2305 (GlaxoSmithKline (GSK), 2010)

Test system: P. falciparum 3D7 growth, pLDH absorbance
Test: blood-stage malaria parasite growth potency – strain 3D7, dose response (AID 2305)

SMILES	IC50 [nM]
COc1ccc2cc(-c3nc(-c4c(Cl)cccc4Cl)[nH]c3-c3ccnc(NCCCN4CCCCC4C)c3)ccc2c1 (centres undefined)	950
CN(C)CCNC(=O)[C@H](CC1CCCCC1)NC(=O)c1ccc(O)c(-c2ccc(Cl)c(Cl)c2)c1	770
CCN1CCN(Cc2ccc3nc(-c4cc(C)n(Cc5cc(Cl)ccc5OCc5ccccc5)n4)[nH]c3c2)CC1	770
COc1cccc2c(Nc3ccccc3C)nc(Nc3ccccc3C)nc12	680
CC(CN1CCN(C)CC1)C(=O)Nc1cccc(-c2ccc(-c3nc4ccccc4[nH]3)cc2)c1 (centres undefined)	940
Oc1cc(Nc2ccnc3cc(-c4ccc(CN5CCCCC5)o4)c(Cl)cc23)c(Cl)cc1F	1260
Cc1ccc(C(=O)Nc2ccc(Nc3ccnc4cc(-c5ccncc5)ccc34)cc2O)cc1	930
CCCN1CCN(CCCNC(=O)c2cc3c(-c4ccc(Cl)cc4)nn(C)c3s2)CC1	1100
COc1ccc(S(=O)(=O)N2CCOCC2)cc1NC(=O)c1cc2ccccc2o1	790
CC(C)n1cc(CN2CCCC(C(=O)Nc3cccc(-c4cc5ccccc5[nH]4)c3)C2)cn1 (centres undefined)	1000
CC(C)N(C(=O)CSc1nc2cc(Cl)ccc2c(=O)n1Cc1ccccc1)C(C)C	170
Cc1cc(-c2ccc(CN3Cc4ccccc4C3)cc2)ccc1S(=O)(=O)NCCN1CCCC1	970
CN1CCN(Cc2ccc(-c3cccc(-c4nc5ccccc5[nH]4)c3)cc2)CC1	1390
CCOc1ccc2nc(C)cc(NN=Cc3cccnc3)c2c1	150
CCN(CC)CCN(Cc1ccc(-c2ccc(C(F)(F)F)cc2)cc1)C(=O)Cn1c(CCc2ccccc2F)nc(=O)c2ccccc21	930
Clc1ccc(Nc2nc3nonc3nc2Nc2ccc(Cl)c(Cl)c2)cc1	650
O=C(Nc1cccc(C(F)(F)F)c1)c1ccc(S(=O)(=O)NC2CCN(CC3CCCCC3)CC2)cc1	1160
O=C(NCCCCN1CCC(c2ccc3c(c2O)CCCC3)CC1)c1ccc(NC(=O)c2ccc(Cl)cc2)cc1	240
Cc1ccc(O)c(C(=O)c2cc(C(=O)Nc3ccccc3C)c(=O)n(-c3ccccc3C)c2)c1	780
N#Cc1cccc(Nc2cc(C(F)(F)F)nc(Nc3ccccc3)n2)c1	1440
Clc1ccc(CNc2ccnc(NCc3ccc4c(c3)OCCCO4)n2)c(Cl)c1	990
O=C(NCCCCN1CCN(c2cccc(Cl)c2Cl)CC1)c1ccc2c(c1)CCN(C1CCC1)CC2	750
NC(N)=NN=CC(=O)Nc1ccc(Cl)c(Cl)c1	740
CCCCc1cc(NCC)nc(Nc2ccc(OC)cc2)n1	1180
c1ccc(COc2ccc(Nc3ncnc4ccc(-c5ccc(CN6CCSCC6)o5)cc34)cc2)cc1	830

SMILES	IC50 [nM]
CCNc1cc(C(=O)N[C@@H](Cc2ccccc2)[C@H](O)CNC(CC)c2cccc(Cl)c2)cc(N2CCCC2=O)c1 (some centres undefined)	30
Fc1ccc(CNc2ccc3ncc(-c4cccnc4)n3n2)cc1	930
COc1cccc(C2=CC(C)(C)Oc3cc(OCCN(C)C)ccc32)c1	790
CCCCCCN1CCCN(Cc2ccc(C(=O)Nc3ccc(CCC)cc3)cc2)CC1	660
c1cncc(CNc2ncc(-c3ccsc3)c(-c3nccs3)n2)c1	1380
COc1cc2nc(C)nc(Nc3ccc4c(ccn4Cc4ccccc4)c3)c2cc1OC	560
O=C(Nc1cccc(-c2nn3ncccc3c2-c2ccnc(Nc3ccccc3)n2)c1)c1c(F)cccc1F	730
CC(C)CNCc1ccc(-c2ccccc2CN(C(=O)NCCc2ccccc2)C2CCN(Cc3ccccc3)CC2)cc1	880
CC(C)(CNC(=O)/C=C/c1ccc(Cl)c(Cl)c1)CNc1cc(=O)c2ccccc2[nH]1	860
CCCC1N=C(N)N=C(N)N1c1ccc(OC)cc1 (centres undefined)	230
COC(=O)c1ccc(CC(C)NCC(O)c2ccc(C(O)CNC(C)Cc3ccc(C(=O)OC)cc3)cc2)cc1 (centres undefined)	1030
CC(=O)Nc1cccc(C(=O)Nc2ccc(-c3cccc(-c4nc5ccc(F)cc5[nH]4)c3)cc2)c1	630
CCn1c(-c2nonc2N)nc2c(-c3cccc(Cl)c3)ncc(OCCCNCc3cnc(C)nc3N)c21	1010
CCCC1N=C(N)N=C(N)N1c1cccc(C(F)(F)F)c1 (centres undefined)	590
CCc1ccc(CN2CCC(CNC(=O)c3cc(-c4cccc(F)c4)cs3)C2)cc1 (centres undefined)	1360
CC(=O)Nc1cccc(/C=C/C(=O)N2CCC(N3CCCCC3)CC2)c1	1050
O=C(/C=C/c1ccc(Cl)c(Cl)c1)NCCCCN1CCCN(C(=O)Nc2cc(Cl)cc(Cl)c2)CC1	950
CS(=O)(=O)CCNc1cc(N2CCc3ncnc(Nc4ccc(OCc5cccc(F)c5)c(Cl)c4)c3C2)ncn1	870
CCCCCCC(C)(C)c1cc(O)c2c3c(c(=O)oc2c1)CCN(Cc1ccccc1)C3	220
C=C1N(C)c2cc([N+](=O)[O-])c(N)cc2C1(C)C	490
Clc1cccc(Cl)c1CCNCC1CCN(CC2CCCCC2)CC1	210
CCc1c(CCNCCCC(C)CCNCCc2ccc(OC)c(OC)c2CC)ccc(OC)c1OC (centres undefined)	1110
Cc1[nH]c(C)c(-c2ccc(CCc3ccc(C(F)(F)F)cc3)nc2)c(=O)c1Cl	90
N=c1c2c(n(Cc3cccc(Cl)c3)c3c1CCC3)CCCC2	190
CN1CCCC1CCNCc1cccc(-c2cnc(N3CCCC(C)(C)C3)nc2)c1 (centres undefined)	930

SMILES	IC50 [nM]
CCN1CC[C@]2(c3cccc(OC)c3)Cc3nc4ccccc4c(-c4ccccc4)c3C[C@H]2C1	350
Cn1nc(-c2ccc(NC(=O)Nc3cc(C(F)(F)F)ccc3F)cc2)c2cnc(NCCCCN3CCCC3)nc21	530
CCOc1ccc2nc(C)cc(NN=Cc3cccc(F)c3)c2c1	740
COc1ccc2nccc(N3CCC(NCCNCc4ccc5c(n4)NC(=O)CS5)C3)c2n1 (centres undefined)	690
O=C(N[C@H]1CCN(Cc2ccc(OC3CCN(Cc4ccccc4)CC3)c(Cl)c2)C1)c1ccc(Cl)c(Cl)c1	810
Cc1cc(C(=O)Nc2ccc(OCc3ccccc3)cc2)on1	990
COc1ccc2c(c1CNCCCCCCNCc1c(OC)ccc3c1CCCC3)CCCC2	910
NC1=NC2(CCCCC2)N(OCCCCCCCCNc2nc(N)nc(N)n2)C(N)=N1	60
CS(=O)(=O)c1ccccc1CNC(=O)c1ccc(-c2cccc(-c3nc4ccc(C(F)(F)F)cc4[nH]3)c2)cc1	870
COc1ccc2nccc([C@@H](O)CN3CCC(NC(=O)C(c4cc5ccccc5o4)N4CCN(c5ccc(F)cc5)CC4)CC3)c2c1 (some centres undefined)	200
COc1cc(Cc2cnc(N)nc2N)c2c(c1OC)OC(C)(C)C=C2	1190
O=C(Nc1ccc(N2CCCCC2)c(Cl)c1)c1ccco1	410
CN1CC=C(c2c[nH]c3ccc(Br)cc23)CC1	1190
CN1CCN(C(C(=O)NCc2cc(Cl)cc(Cl)c2)c2ccc(Nc3cccc(C(F)(F)F)c3)cc2)CC1 (centres undefined)	1120
CN=C(N)c1ccc(NC(=O)Nc2ccc(C(N)=NC)cc2)cc1	580
OC(CNCCCCCCNCC(O)c1ccc(Cl)c(Cl)c1)c1ccc(Cl)c(Cl)c1 (centres undefined)	910
CC(=O)Nc1ccc(OCCCCCOc2ccc(NC(C)=O)cc2Cl)c(Cl)c1	830
CC(C)N1CCN(C(CN2CCN(CCCOc3cccc(F)c3)CC2)c2ccc(F)cc2)CC1 (centres undefined)	910
CCCCOc1ccc(/C=C/c2ccc(-c3c(C)[nH]c(C)c(Cl)c3=O)s2)cc1	400
Cc1c(N)ccc2[nH]c(-c3ccc(N)cc3)nc12	1210
Nc1cccc(CNCc2cccc(-c3cccc(-c4nc5ccccc5[nH]4)c3)c2)c1	610
CN(C)CCCOc1cc(NC(=O)Nc2ccc(-c3ccncc3)c3ccccc23)ccc1I	700
CC(C)CCN=C(N)Nc1ccc(OCCCCCOc2ccc(NC(N)=NCCC(C)C)cc2)cc1	1080
O=C(Cc1ccccc1)NC1CCN(c2ccnc3cc(Cl)ccc23)C1 (centres undefined)	800
Cn1c(NC(=O)C2CCC(CNC(=O)c3ccc(O)c(-c4cccc([N+](=O)[O-])c4)c3)CC2)nc2ccccc21 (centres undefined)	980

SMILES	IC50 [nM]
c1cncc(Oc2ccc(Nc3ccnc4cc(-c5cccc(CNCCN6CCOCC6)c5)ccc34)cc2)c1	110
OC(COc1ccccc1-c1nc2ccccc2o1)CN1CCCN(CCc2ccccc2)CC1 (centres undefined)	760
O=C(Nc1cc(Cl)cc(Cl)c1)N[C@H]1CCN(CCCCCNC(=O)[C@@H]2C[C@H]2c2ccc(Cl)c(Cl)c2)C1	860
O=C(Nc1ccc(-c2cccc(-c3nc4ccccc4[nH]3)c2)cc1)N[C@@H]1C[C@H]1c1ccccc1	630
CC(=O)c1ccc(NC(=O)Nc2ccc(N(C)c3ccnc(NC4CC4)n3)cc2)cc1	800
Cc1cc2c(cc1C(F)(F)F)N(C(=O)Nc1ccc(C(=O)NC3CCN(Cc4ccccc4)C3)cc1)CC2 (centres undefined)	780
O=C1COc2ccc(CNC3CCC(O)(CCc4ccnc5cc6c(cc45)OCCO6)CC3)nc2N1 (centres undefined)	930
COc1c(C2CCN(CCCCNC(=O)c3ccc(-c4ccc(Cl)cc4)c(OCCN(C)C)c3)CC2)ccc2c1CCCC2	190
CCN1CCc2nc3ccccc3c(C(=O)Nc3ccc(C#N)cc3)c2C1	780
Fc1cccc(COc2ccc(Nc3ncnc4sc(C#C[C@H]5CCCN5)cc34)cc2F)c1	870
CC[C@H]1CN2CC[C@H]1C[C@@H]2[C@@H](O)c1ccnc2ccc(OC)cc12	120
CCCCCCC(C)c1cc(O)c2c(c1)OC(C)(C)c1ccncc1-2 (centres undefined)	800
CCCCCn1c(Sc2ccc(C#N)c([N+](=O)[O-])c2)nnc1-c1cc(OC)cc(OC)c1	960
Fc1ccc2nc(-c3ccc(-c4ccc(CN5CCN(c6cnccn6)CC5)cc4)s3)[nH]c2c1	620
O=C1CCCC1Sc1nc2ccccc2c(=O)n1-c1ccc(Cl)c(Cl)c1 (centres undefined)	730
Cn1cc(CN2CCCC(COC(c3ccc(F)cc3)c3ccc(F)cc3)C2)cn1 (centres undefined)	570
O=c1cc(NCCCNCc2ccc(Cl)c(Cl)c2)[nH]c2cc(Cl)ccc12	920
O=[N+]([O-])c1cccc(CNCC2CCN(Cc3ccc(-c4ccccc4)cc3)CC2)c1	250
C[C@@H](Oc1cc(-n2cnc3cc(SCCN4CCN(C)CC4)ccc32)sc1C(N)=O)c1ccccc1Cl	510
COc1ccc(C2CCN(CCCCNC(=O)c3ccc(NC(=O)c4ccc(Cl)cc4)cc3)CC2)cc1Cl	840
Oc1ccccc1CN1CCN(C(c2ccccc2)c2ccccc2)CC1	760
CCOC(=O)c1ccc(-n2c(C)cc(C=C3SC(=Nc4ccccc4)N(C4CCCC4)C3=O)c2C)cc1	1170
O=[N+]([O-])c1cccc(CNC2CCN(Cc3ccc4ccccc4c3)CC2)c1	760
COCCNCc1cccc(-c2ccc3nccc(Nc4cc(O)ccc4C)c3c2)c1	750
